Assay results taken from patent US6815187B1, “Stimulation of angiogenesis via syndecan-4 cytoplasmic domain signaling pathway” (Beth Israel Deaconess Medical Center, priority 1998, dated 2004).
pIC50, pKd: −log10 of the molar value. Values belong to the molecule of their own block, whether it stands above or below them. Where no end group is shown, it is not given here. [ ]: non-standard residue; d: D form. pS = N[C@@H](COP(=O)(O)O)C(=O)O

Experiments:
[1] = system: syndecan-4 cytoplasmic tail phosphorylation in NIH 3T3 cells; experiment: Syndecan-4 cytoplasmic tail phosphorylation stoichiometry (32P/35S double labeling) in NIH 3T3 cells; type: cell-based
Protocol: Confluent NIH 3T3 cells were washed twice in phosphate-free DMEM and incubated for 24 h at 37° C. in a 5% CO2 humidified atmosphere in phosphate-free DMEM supplemented with 0.5% fetal bovine serum. The cells were washed twice with methionine, phosphate, and serum-free DMEM and incubated for 6 h in the same medium, supplemented with 400 μCi/ml [^35S]methionine (New England Nuclear, Boston, Mass.). At the onset of the last 2 h of incubation, 500 μCi/ml [^32P]orthophosphoric acid (New England Nuclear) was added to the medium.
Cells were washed with PBS ([…], 10 mM Na2HPO4, 3.6 mM KCl, 1.8 mM KH2PO4, pH 7.4), dissociated by 0.05% trypsin, 0.5 mM EDTA (Life Technologies, Inc.) in PBS for 10 min at 22° C., and sedimented by 2000×g centrifugation at 4° C. for 5 min. The syndecan-4 ectoplasmic domain was immunoprecipitated from 0.5 ml of medium collected before cell trypsinization or from 0.5 ml of supernatant of the latter centrifugation. The cytoplasmic tail was immunoprecipitated from the pellet after a 30-min extraction at 4° C. in 0.5 mil of lysis buffer supplemented with 100 μM leupeptin, 2 μM pepstatin, and 10 nM okadaic acid (Sigma). Total protein concentrations in each fraction were measured by spectrophotometry at 595 nm (DU 640, Beckman, Fullerton, Calif.) of an aliquot developed for 10 min in Protein Assay Dye Reagent (Bio-Rad). Bovine serum albumin (Life Technologies Inc.) was used as standard.
The medium, trypsinization supernatant, and extracted pellet fractions were precleared by adding 30 μl of 1:1 (v/v) slurry of protein G plus/protein A-agarose beads (Calbiochem), and 10 μl of nonimmune rabbit serum (Life Technologies Inc.). After a 2-h incubation at 4° C. in rotating tubes, the beads were sedimented by 5 min, 5000×g centrifugation at 4° C. The cleared samples were supplemented with 40 μl of 1:1 (v/v) slurry of the above beads and 10 μl of rabbit polyclonal antiserum (syndecan-4 ectoplasmic domain-specific antiserum was added to the medium and trypsinization supernatant samples, and cytoplasmic tail-specific antiserum was added to the extracted pellet fraction) and incubated in rotating tubes for 18 h at 4° C. The agarose beads were collected by centrifugation as above, washed three times in heparinase digestion buffer, and resuspended in 40 μl of digestion buffer, and the GAG chains of the bead-attached ectoplasmic domains from the medium and from the trypsinization-supernatant were cleaved as above. The ectoplasmic and cytoplasmic tails were dissociated from the beads by a 10-min incubation in SDS buffer at 95° C., and the beads were sedimented by a 5 min, 13,000×g centrifugation at 4° C.
Immunoprecipitated, full-length syndecan-4 core proteins were resuspended in Laemmli sample buffer (2% SDS, 10% glycerol), 0.5% P-mercaptoethanol, 0.004% bromphenol blue, 50 mM Tris-HCl, pH 6.8) resolved by SDS-PAGE on a 10% slab gel, and transferred to a polyvinylidene fluoride (PVDF) membrane (Immobilon-P, Millipore, Bedford, Mass.) for 12 h at 25 mA in 150 mM glycine, 20 mM Tris-HCl, and 20% methanol. The ectoplasmic and cytoplasmic syndecan-4 domains were resolved on a 15% slab gel and transferred for 90 min at 20 mA in 150 mM glycine, 20 mM Tris-HCl, and 30% methanol to a low porosity PVDF membrane (Immobilon-P^SQ, Millipore). Radiolabeled bands detected by exposure to film (XAR, Kodak, Rochester, N.Y.) were excised, and their radioactivity was measured in both the ^32P and ^35S spectra by scintillation counting (LS 6000IC, Beckman, Fullerton, Calif.). In some cases, the same membranes were used for immunoblotting prior to band excision.
To determine the stoichiometry of the basal phosphorylation of syndecan-4, as well as the effect of bFGF and of other compounds on this phosphorylation, the cells were doubly labeled with [^35S]methionine and [^32P]orthophosphoric acid. […]

PKC = conditions: commercially available PKC inhibitors; cited from earlier work
[2] = PIP2 binding assay (filtration of PIP2 micelle-bound peptide)
Protocol: PIP2 (from Sigma, dissolved at 2 mg/ml in 20 parts CHCl3, 9 parts MeOH, 1 part H2O, 0.1 part 1N HCl) was dried under N2 and sonicated for 5 min in ice-cold H2O at a final concentration of 1 mg/ml. Syndecan-4 cytoplasmic tail peptides S4c or S4c-P (100 μM) were incubated on ice for 30 min with the indicated concentrations of PIP2 in 10 mM Tris-HCl (pH 7.5), 75 mM KCl, 0.5 mM DTT, in aliquots of 100 μl. The samples were layered on 30 kDA-molecular-mass cutoff cellulose filters (Ultrafree-MC, Millipore, Bedford, Mass.), and spun at 2000 g for 1 min, following the method described in Haarer et al., Mol. Cell Biol. 13: 7864-7873 (1993). The samples (40 μl of each in Laemmli sample buffer, 2% SDS, 10% glycerol, 0.5% β-mercaptoethanol, 0.004% bromophenol blue, 50 mM Tris-HCl, pH 6.8) were resolved by SDS-PAGE on 16.5% Tris-tricine gels (BioRad Laboratories, Hercules, Calif.). Gels were stained with Coomassie Brilliant Blue G-250 (BioRad Laboratories), and images of the stained bands were digitized (DeskScan II on ScanJet 4c, Hewlett Packard) and quantitated by densitometry (ImageQuant, Molecular Dynamics, Sunnyvale, Calif.).
Both the oligomerization and PKCα activation capacities of the cytoplasmic tail of syndecan-4 have been reported as depending on the presence of PIP2 [Oh et al., J. Biol. Chem. 272: 11805-11811 (1997); Lee et al., J. Biol. Chem. 273: 13022-13029 (1998)]. It was of interest, therefore, to determine whether the phosphorylation of Ser^183 in the cytoplasmic tail of syndecan-4 affects the affinity of the tail to PIP2. To this end, the in-vitro binding between PIP2 micelles and S4c or S4c-P peptides was compared using a filtration assay. The filter retains the PIP2 micelle-bound peptide, while the unbound peptide passes through it. The results are illustrated by FIGS. 7A and 7B respectively.
Samples were resolved on 16.5% Tris-tricine gels. FIG. 7B graphically illustrates the densitometry results of the gel bands of the S4c (black bars) and S4c-P (white bars) peptides shown in FIG. 7A.

recombinant PKCα = target: T1, recombinant PKCα (Homo sapiens, UniProt P17252); experiment: PKC in vitro assay, phosphorylation of PKCβ1 optimal substrate peptide by recombinant PKCα; type: biochemical; conditions: 50 μM peptide with cofactors PS, DAG and calcium
T1 construct: made in house
Protocol: Samples (30 μl) consisted of PKCβ1 optimal substrate peptide (100 μM) either with or without syndecan-4 cytoplasmic tail peptides S4c or S4c-P (both at 50 μM) in 25 mM Tris-HCl (pH 7.4), […], 1 mM DTT, 50 μM ATP, and 5 μCi [y-^32P]ATP (New England Nuclear, Boston, Mass.). In some assays the buffer was supplemented with either PIP2 (50 μM), or PS (4 μg/ml), diolein (6.2 μg/ml), and 0.2 mM CaCl2. In PKCδ assays the buffer was supplemented with PS and diolein as above, and with 0.5 mM EGTA. Upon addition of either PKCα (120 ng/ml) or PKCδ (430 ng/ml), samples were incubated at 30° C. for 10 min, and reactions were stopped by boiling in Laemmli sample buffer for 4 min. The samples were resolved on 16.5% Tris-tricine gels (BioRad Laboratories), transferred to PVDF membranes and detected as described previously in Experimental Series I.
To assess the effect of Ser^183 phosphorylation on syndecan-4-dependent PKC activation, the ability of the 28 amino acid-long syndecan-4 cytoplasmic tail peptide, S4c, and S4c-P peptides to activate recombinant PKCα was studied using the PKCβ1 optimal substrate peptide in an in-vitro assay. The results are graphically illustrated by FIG. 5.
Densitometry histograms of autoradiographic images of PKC β1 optimal substrate peptide were resolved on 16.5% Tris-tricine gels and then transferred to PVDF membranes (n=3; bars denote SD). […]

[3] = system: syndecan-4 expression in NIH 3T3 cells; experiment: Syndecan-4 expression level by immunoblotting and densitometry of cell lysates; type: cell-based
Protocol: After blocking in PBS containing 5% nonfat milk powder for 1 h at 22° C., the membrane was incubated in the same solution supplemented with 1:3000 (v/v) dilution of either ectoplasmic or cytoplasmic tail-specific antiserum for 2 h, washed with PBS, and incubated for 1 h in 5% milk powder-PBS containing 1:2000 diluted goat anti-rabbit IgG conjugated to peroxidase (Vector Laboratories, Burlingame, Calif.). The secondary antibody was detected, after […] PBS wash, by chemiluminescence (Western Blot, Chemiluminescence Reagent Plus, New England Nuclear). Molecular weights were estimated by comparison with the electrophoretic mobility of standards (Kaleidoscope Prestained Standards, Bio-Rad). Densitometry of digitized images of immunoprobed membranes (ScanJet 4c, Hewlett Packard) was performed using ImageQuant software (Molecular Dynamics, Sunnyvale, Calif.).
If, contrary to our assumption, the incorporation efficiency of ^35S is higher than that of ^32P, the bFGF-induced decrease in syndecan-4 phosphorylation could solely result from bFGF up-regulation of syndecan-4 synthesis. […] The syndecan-4 bands, which similar to immunoprecipitated samples (FIG. 2A) ran at an approximate molecular mass of […], were detected with the antiserum specific to the ectoplasmic domain; and the amount of protein in each band was quantified by densiometry. […]

Molecule: Cn1c2ccccc2c2c3c(c4c5ccccc5n(CCC#N)c4c21)CNC3=O [Gö 6976]
phosphorylation of syndecan-4 ([1]; Gö 6976 up to 100 nM in PMA (0.5 μM)-treated cells): not reduced | pIC50 (PKC): 8.10

Molecule: CCCCCCCCCCCCCC(=O)O[C@@H]1[C@@H](C)[C@@]2(O)[C@@H](C=C(CO)C[C@]3(O)C(=O)C(C)=C[C@@H]23)[C@@H]2C(C)(C)[C@]12OC(C)=O [PMA, Phorbol-12-myristate-13-acetate]
syndecan-4 phosphorylation relative to basal level ([1]; 0.5 μM PMA): ~3 fold | stoichiometry of the phosphorylation of syndecan-4 ([1]; 0.5 μM PMA during last 5 h of serum-free starvation, n=3): 0.81±0.33 mol Pi/mol syndecan-4

Molecule: COc1ccc2c(c[n+](C)c3c4cc5c(cc4ccc23)OCO5)c1OC [chelerythrine]
phosphorylation of syndecan-4 ([1]; 6 μM chelerythrine together with 0.5 μM PMA): undetectable level | concentration above which syndecan-4 phosphorylation started to decline ([1]; applied together with 0.5 μM PMA): above 1.5 μM

Molecule: Calphostin
pIC50 (PKC): 7.30

pKd ([2]; calculated from densitometry of filter flow-through, FIG. 7, read-out: dissociation constant (Kd) for PIP2): 3.63 | peptide passed through the filter ([2]; peptide:PIP2 molar ratio of 1:2): 50% | peptide retained by the filter ([2]; peptide:PIP2 molar ratio of 2:1, 100 μM peptide): none
Molecule: S4c-P: similar syndecan-4 cytoplasmic tail peptide with a phosphorylated Ser (RMKKKDEG[pS]YDLGKKPIYKKAPTNEFYA)
effect on catalytic activity of PKCα (recombinant PKCα): neither the S4c, nor the S4c-P peptides had any additional effect

Molecule: basic fibrocyte growth factor [bFGF]
level of syndecan-4 expression, % of control cells ([3]; 10 ng/ml bFGF): 85% | level of syndecan-4 expression, % of control cells ([3]; 30 ng/ml bFGF): 93% | phosphorylation stoichiometry of syndecan-4 ([1]; 10 ng/ml bFGF during last 5 h of serum-free starvation, n=5, basal 0.31±0.12): 0.16±0.02 mol Pi/mol syndecan-4 | phosphorylation stoichiometry of syndecan-4 ([1]; 20 and 30 ng/ml bFGF, n=3): 0.12±0.06 mol Pi/mol syndecan-4

Molecule: calyculin
syndecan-4 phosphorylation in bFGF-treated cells ([1]; 5 nM calyculin applied with 10 ng/ml bFGF): basal level | increase of syndecan-4 phosphorylation relative to basal level ([1]; 5 nM calyculin in the absence of bFGF): more than 2.5 fold
